From patent US10538516B2, “Oxadiazole derivative and pharmaceutical containing same” (National Center for Geriatrics and Gerontology, priority 2015, dated 2020)
Read-outs that look alike come from different tables or passages of the source.

Target: T1, GAβ-dependent amyloid fibril formation (Human Aβ1-40 + GM1-containing liposome) (Homo sapiens, UniProt P05067)
T1 construct: Human Aβ1-40 (cat. #4307-v, prepared by Peptide Institute); purchased Peptide Institute 4307-v
Assay: Thioflavin T (ThT) assay of GAβ-dependent amyloid fibril formation (Aβ1-40 with GM1-containing liposome)
Type: biochemical
How it was run: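 Human Aβ1-40 (75 μM stock) pre-incubated 10 min at room temperature with compound (75 or 15 μM solution), then GM1-containing cholesterol/sphingomyelin liposome added and incubated 37° C, 18 hours. Fibrils quantified by ThT fluorescence (ex 430/em 490 nm, pH 8.5 glycine buffer); inhibition as ratio to compound-free control.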

[1] = @25 μM, read-out: ThT Inhibitory activity (% inhibition)
[2] = inhibition rate against amyloid fibril formation, final concentration of the compound 25 μM, read-out: Inhibitory activity ABC evaluation
[3] = inhibition rate against amyloid fibril formation, final concentration of the compound 25 μM

T1 sequence (P05067 672-711 limits assumed): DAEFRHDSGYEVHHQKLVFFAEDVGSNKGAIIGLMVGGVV

Structure (SMILES)	inhibition at 25 µM [1] [%]	inhibition at 25 µM [2] [%]	Inhibitory activity ABC evaluation [3]
O=C(N[C@@H](CO)c1nc(-c2ccc(C(F)(F)F)cc2)no1)c1ccc(OC(F)(F)F)cc1 [Compound 199, N-[(1S)-2-hydroxy-1-{3-[4-(trifluoromethyl)phenyl]-1,2,4-oxadiazol-5-yl}ethyl]-4-(trifluoromethoxy) benzamide]	–	> 80	–
O=C(N[C@@H](CO)c1nc(-c2ccc(C(F)(F)F)cc2)no1)c1ccc(N2CCOCC2)cc1 [Compound 200, N-[(1S)-2-hydroxy-1-{3-[4-(trifluoromethyl)phenyl]-1,2,4-oxadiazol-5-yl}ethyl]-4-(morpholin-4-yl) benzamide]	–	40 to 80	–
O=C(N[C@@H](CO)c1nc(-c2ccc(C(F)(F)F)cc2)no1)c1ccc(N2CCCC2)cc1 [Compound 203, N-[(1S)-2-hydroxy-1-{3-[4-(trifluoromethyl)phenyl]-1,2,4-oxadiazol-5-yl}ethyl]-4-(pyrrolidin-1-yl) benzamide]	81	> 80	–
O=C(N[C@@H](CO)c1nc(-c2ccc(C(F)(F)F)cn2)no1)c1ccc(Cl)cc1 [Compound 205, 4-chloro-N-[(1S)-2-hydroxy-1-{3-[5-(trifluoromethyl)pyridin-2-yl]-1,2,4-oxadiazol-5-yl}ethyl]benzamide]	–	–	B (40% or more and less than 80% were evaluated as B)
Cl.O=C(N[C@@H](CO)c1nc(-c2ccc(C(F)(F)F)cn2)no1)c1ccc(Cl)cc1 [Compound 207, 4-chloro-N-[(1S)-2-hydroxy-1-{3-[5-(trifluoromethyl)pyridin-2-yl]-1,2,4-oxadiazol-5-yl}ethyl]benzamide hydrochloride]	–	–	A (80% or more was evaluated as A)
O=C(N[C@@H](CO)c1nc(-c2ccc(C(F)(F)F)s2)no1)c1ccc(F)cc1 [Compound 210, 4-fluoro-N-[(1S)-2-hydroxy-1-{3-[5-(trifluoromethyl)thiophen-2-yl]-1,2,4-oxadiazol-5-yl}ethyl] benzamide]	–	> 80	–
O=C(N[C@@H](CO)c1nc(-c2ccc(F)cc2Cl)no1)c1ccc(F)cc1 [Compound 219, N-[(1S)-1-[3-(2-chloro-4-fluorophenyl)-1,2,4-oxadiazol-5-yl]-2-hydroxyethyl]-4-fluorobenzamide]	–	< 40	–
C[Si](C)(C)c1ccc(-c2noc([C@H](CO)NC(=O)c3ccc(F)cc3)n2)cc1 [Compound 224, 4-fluoro-N-[(1S)-2-hydroxy-1-{3-[4-(trimethylsilyl)phenyl]-1,2,4-oxadiazol-5-yl}ethyl]benzamide]	–	> 80	–
O=C(N[C@@H](CO)c1nc(-c2ccc3ccccc3n2)no1)c1ccc(F)cc1 [Compound 225, 4-fluoro-N-[(1S)-2-hydroxy-1-[3-(quinolin-2-yl)-1,2,4-oxadiazol-5-yl]ethyl] benzamide]	–	40 to 80	–
O=C(N[C@@H](CO)c1nc(-c2nccc3ccccc23)no1)c1ccc(F)cc1 [Compound 226, 4-fluoro-N-[(1S)-2-hydroxy-1-[3-(isoquinolin-1-yl)-1,2,4-oxadiazol-5-yl]ethyl]benzamide]	–	40 to 80	–
O=C(N[C@@H](CO)c1nc(-c2csc(Cl)c2)no1)c1ccc(F)cc1 [Compound 227]	–	40 to 80	–
O=C(N[C@@H](CO)c1nc(-c2ccc(Cl)o2)no1)c1ccc(F)cc1 [Compound 228, N-[(1S)-1-[3-(5-chlorofuran-2-yl)-1,2,4-oxadiazol-5-yl]-2-hydroxyethyl]-4-fluorobenzamide]	–	< 40	–
O=C(N[C@@H](CO)c1nc(-c2c[nH]c3ncccc23)no1)c1ccc(F)cc1 [Compound 229, 4-fluoro-N-[(1S)-2-hydroxy-1-(3-{1H-pyrrolo[2,3-b]pyridin-3-yl}-1,2,4-oxadiazol-5-yl)ethyl]benzamide]	71	40 to 80	–
O=C(N[C@@H](CO)c1nc(-c2csc3ccccc23)no1)c1ccc(F)cc1 [Compound 230, N-[(1S)-1-[3-(1-benzothiophen-3-yl)-1,2,4-oxadiazol-5-yl]-2-hydroxyethyl]-4-fluorobenzamide]	73	40 to 80	–

More lines, main results first:

inhibition at 25 µM [1] [%]	inhibition at 25 µM [2] [%]	Structure (SMILES)	Inhibitory activity ABC evaluation [3]
70	40 to 80	O=C(N[C@@H](CO)c1nc(-c2ccc(C(F)(F)F)cc2)no1)c1c(F)cccc1F [Compound 197, 2,6-difluoro-N-[(1S)-2-hydroxy-1-{3-[4-(trifluoromethyl)phenyl]-1,2,4-oxadiazol-5-yl}ethyl]benzamide]	–
–	> 80	O=C(N[C@@H](CO)c1nc(-c2ccc(C(F)(F)F)cc2)no1)c1ccc(Cl)s1 [Compound 198, 5-chloro-N-[(1S)-2-hydroxy-1-{3-[4-(trifluoromethyl)phenyl]-1,2,4-oxadiazol-5-yl}ethyl]thiophene-2-carboxamide]	–
–	> 80	O=C(N[C@@H](CO)c1nc(-c2ccc(C(F)(F)F)cc2)no1)c1ccc(Oc2ccccc2)cc1 [Compound 201, N-[(1S)-2-hydroxy-1-{3-[4-(trifluoromethyl)phenyl]-1,2,4-oxadiazol-5-yl}ethyl]-4-phenoxybenzamide]	–
–	40 to 80	O=C(N[C@@H](CO)c1nc(-c2ccc(C(F)(F)F)cc2)no1)c1ccc2ccccc2c1 [Compound 202, N-[(1S)-2-hydroxy-1-{3-[4-(trifluoromethyl)phenyl]-1,2,4-oxadiazol-5-yl}ethyl]naphthalene-2-carboxamide]	–
–	40 to 80	O=C(N[C@@H](CO)c1nc(-c2ccc(C(F)(F)F)cn2)no1)c1ccc(F)cc1 [Compound 204, 4-fluoro-N-[(1S)-2-hydroxy-1-{3-[5-(trifluoromethyl)pyridin-2-yl]-1,2,4-oxadiazol-5-yl}ethyl]benzamide]	–
55	–	Cl.O=C(N[C@@H](CO)c1nc(-c2ccc(C(F)(F)F)cn2)no1)c1ccc(F)cc1 [Compound 206, 4-fluoro-N-[(1S)-2-hydroxy-1-{3-[5-(trifluoromethyl)pyridin-2-yl]-1,2,4-oxadiazol-5-yl}ethyl]benzamide hydrochloride]	B (40% or more and less than 80% were evaluated as B)
–	40 to 80	O=C(/C=C/c1ccc(F)cc1)N[C@@H](CO)c1nc(-c2ccc(C(F)(F)F)cc2)no1 [Compound 208, (2E)-3-(4-fluorophenyl)-N-[(1S)-2-hydroxy-1-{3-[4-(trifluoromethyl)phenyl]-1,2,4-oxadiazol-5-yl}ethyl]prop-2-enamide]	–
–	> 80	CN(C)c1ccc(C(=O)N[C@@H](CO)c2nc(-c3ccc(C(F)(F)F)cc3)no2)cc1 [Compound 209, 4-(dimethylamino)-N-[(1S)-2-hydroxy-1-{3-[4-(trifluoromethyl)phenyl]-1,2,4-oxadiazol-5-yl}ethyl]benzamide]	–
89	> 80	O=C(N[C@@H](CO)c1nc(-c2c[nH]c3ccccc23)no1)c1ccc(F)cc1 [Compound 211, 4-fluoro-N-[(1S)-2-hydroxy-1-[3-(1H-indol-3-yl)-1,2,4-oxadiazol-5-yl]ethyl]benzamide]	–
–	40 to 80	O=C(N[C@H](CO)c1nc(-c2ccc(C(F)(F)F)cc2)no1)c1ccc(F)cc1 [Compound 212, 4-fluoro-N-[(1R)-2-hydroxy-1-{3-[4-(trifluoromethyl)phenyl]-1,2,4-oxadiazol-5-yl}ethyl]benzamide]	–
–	< 40	O=C(N[C@H](CO)c1nc(-c2ccc(C(F)(F)F)cc2)no1)c1ccccc1 [Compound 213, N-[(1R)-2-hydroxy-1-{3-[4-(trifluoromethyl)phenyl]-1,2,4-oxadiazol-5-yl}ethyl]benzamide]	–
–	40 to 80	O=C(N[C@H](CO)c1nc(-c2ccc(C(F)(F)F)cc2)no1)c1ccc(Cl)cc1 [Compound 214, 4-chloro-N-[(1R)-2-hydroxy-1-{3-[4-(trifluoromethyl)phenyl]-1,2,4-oxadiazol-5-yl}ethyl]benzamide]	–
–	40 to 80	O=C(N[C@@H](CO)c1nc(-c2cc(C(F)(F)F)cc(C(F)(F)F)c2)no1)c1ccc(F)cc1 [Compound 215, N-[(1S)-1-{3-[3,5-bis(trifluoromethyl)phenyl]-1,2,4-oxadiazol-5-yl}-2-hydroxyethyl]-4-fluorobenzamide]	–
–	< 40	O=C(N[C@@H](CO)c1nc(-c2ccc(OCC(F)(F)F)cc2)no1)c1ccc(F)cc1 [Compound 216]	–
–	40 to 80	O=C(N[C@@H](CO)c1nc(-c2ccc(C(F)(F)F)c(F)c2)no1)c1ccc(F)cc1 [Compound 217, 4-fluoro-N-[(1S)-1-{3-[3-fluoro-4-(trifluoromethyl)phenyl]-1,2,4-oxadiazol-5-yl}-2-hydroxyethyl] benzamide]	–
–	40 to 80	O=C(N[C@@H](CO)c1nc(-c2cc(F)cc(F)c2)no1)c1ccc(F)cc1 [Compound 218, N-[(1S)-1-[3-[3,5-difluorophenyl)-1,2,4-oxadiazol-5-yl]-2-hydroxyethyl]-4-fluorobenzamide]	–
–	> 80	O=C(N[C@@H](CO)c1nc(-c2cccc(C(F)(F)F)c2)no1)c1ccc(N2CCOCC2)cc1 [Compound 220]	–
–	> 80	O=C(N[C@@H](CO)c1nc(-c2cccc(C(F)(F)F)c2)no1)c1ccc(N2CCCC2)cc1 [Compound 221, N-[(1S)-2-hydroxy-1-{3-[3-(trifluoromethyl)phenyl]-1,2,4-oxadiazol-5-yl}ethyl]-4-(pyrrolidin-1-yl) benzamide]	–
–	> 80	O=C(N[C@@H](CO)c1nc(-c2cccc(C(F)(F)F)c2)no1)c1cc(F)cc(Cl)c1 [Compound 222, 3-chloro-5-fluoro-N-[(1S)-2-hydroxy-1-{3-[3-(trifluoromethyl)phenyl]-1,2,4-oxadiazol-5-yl}ethyl]benzamide]	–
–	40 to 80	O=C(N[C@@H](CO)c1nc(-c2cccc(C(F)(F)F)c2)no1)c1cc2ccccc2[nH]1 [Compound 223, N-[(1S)-2-hydroxy-1-{3-[3-(trifluoromethyl)phenyl]-1,2,4-oxadiazol-5-yl}ethyl]-1H-indole-2-carboxamide]	–
